Measured values reported in ChEMBL document CHEMBL1777698, “Synthesis and biological evaluation of unique stereodimers of sinomenine analogues as potential inhibitors of NO production” (Bioorg Med Chem, 2011).
Activity calls are given as the source filed them. The rule behind the calls is not given here.

Columns and labels:
[1] = system: RAW264.7; assay: Cytotoxicity against mouse RAW264.7 cells after 24 hrs by MTT assay; assay type: cell-based
[2] = system: RAW264.7; assay: Inhibition of LPS-induced nitric oxide production in mouse RAW264.7 cells at 100 uM after 24 hrs by Griess reaction relative to control; assay type: functional; details: for inhibition at 100 µM: Mus musculus, RAW264.7, 24 h
[3] = system: RAW264.7; assay: Inhibition of LPS-induced nitric oxide production in mouse RAW264.7 cells at 50 uM after 24 hrs by Griess reaction relative to control; assay type: functional; details: for inhibition at 50 µM: Mus musculus, RAW264.7, 24 h
[4] = system: RAW264.7; assay: Inhibition of LPS-induced nitric oxide production in mouse RAW264.7 cells at 25 uM after 24 hrs by Griess reaction relative to control; assay type: functional; details: for inhibition at 25 µM: Mus musculus, RAW264.7, 24 h
[5] = system: RAW264.7; assay: Inhibition of LPS-induced nitric oxide production in mouse RAW264.7 cells at 12.5 uM after 24 hrs by Griess reaction relative to control; assay type: functional
[6] = system: RAW264.7; assay: Inhibition of LPS-induced iNOS mRNA expression in mouse RAW264.7 cells by RT-PCR analysis; assay type: functional, cell-based
[7] = system: RAW264.7; assay: Inhibition of LPS-induced nitric oxide production in mouse RAW264.7 cells at 1.5625 uM after 24 hrs by Griess reaction relative to control; assay type: functional
[8] = system: RAW264.7; assay: Inhibition of LPS-induced iNOS mRNA expression in mouse RAW264.7 cells at 100 uM by RT-PCR analysis; assay type: functional, cell-based
[9] = system: RAW264.7; assay: Inhibition of LPS-induced nitric oxide production in mouse RAW264.7 cells at 6.25 uM after 24 hrs by Griess reaction relative to control; assay type: functional
[10] = system: RAW264.7; assay: Inhibition of LPS-induced nitric oxide production in mouse RAW264.7 cells at 3.125 uM after 24 hrs by Griess reaction relative to control; assay type: functional
[11] = system: RAW264.7; assay: Cytotoxicity against mouse RAW264.7 cells at 6.25 uM after 24 hrs by MTT assay; assay type: cell-based; details: raw264.7, 24 h

Structure (SMILES)	IC50 ([1]; Mus musculus, RAW264.7, 24 h) [µM]	inhibition at 100 µM [2] [%]	inhibition (INH) [4] [%]	inhibition at 50 µM [3] [%]	inhibition at 25 µM [4] [%]	other results
COc1cc(-c2cc(OC)c(O)c3c2C[C@H]2[C@H]4C[C@@H](OC)[C@H](NS(C)(=O)=O)C[C@@]34CCN2C)c2c(c1O)[C@@]13CCN(C)[C@@H](C2)[C@H]1C[C@@H](OC)[C@H](NS(C)(=O)=O)C3 (stereo in doubt; 5a)	> 100	9.3	-0.2	–	–	inhibition (INH) [3]: 0.2%
COc1cc(-c2cc(OC)c(O)c3c2C[C@H]2[C@H]4C[C@@H](OC)[C@H](NS(C)(=O)=O)C[C@@]34CCN2C)c2c(c1O)[C@@]13CCN(C)[C@@H](C2)[C@H]1C[C@@H](OC)[C@H](NS(C)(=O)=O)C3 (stereo in doubt; 5b)	–	–	-8.4	–	–	inhibition (INH) [2]: 9.9%; inhibition (INH) [3]: 8.6%
COc1cc(-c2cc(OC)c(O)c3c2C[C@H]2[C@H]4C[C@@H](OC)[C@H](NS(=O)(=O)c5ccc(C)cc5)C[C@@]34CCN2C)c2c(c1O)[C@@]13CCN(C)[C@@H](C2)[C@H]1C[C@@H](OC)[C@H](NS(=O)(=O)c1ccc(C)cc1)C3 (stereo in doubt; 4b)	–	–	-2.9	-2.2	–	IC50 ([1]; raw264.7): 72.9 µM; inhibition (INH) [5]: -4%
COc1ccc2c(c1O)[C@]13CCCC[C@@H]1[C@H](C2)N(C)CC3	> 100	30.6	–	28.1	12.1	inhibition [6]: Dose-dependent effect
COC1=C[C@@H]2[C@@H]3Cc4ccc(OC)c(O)c4[C@]2(CCN3)CC1=O	> 100	10.7	–	-0.8	-6.1	–
COC1=C[C@@H]2[C@@H]3Cc4c(-c5cc(OC)c(O)c6c5C[C@H]5[C@H]7C=C(OC)C(=O)C[C@@]67CCN5C)cc(OC)c(O)c4[C@]2(CCN3C)CC1=O (stereo in doubt; 1a) [listing 1 of 2 here]	> 100	–	-2.9	–	–	inhibition (INH) [2]: 23.7%; inhibition (INH) [3]: 15%
COc1cc(-c2cc(OC)c(O)c3c2C[C@H]2[C@H]4Cc5nc6ccccc6nc5C[C@@]34CCN2C)c2c(c1O)[C@@]13CCN(C)[C@@H](C2)[C@H]1Cc1nc2ccccc2nc1C3	6.3	–	–	–	–	inhibition at 1.5625 µM ([7]; Mus musculus, RAW264.7, 24 h): 8.4%
N=C(N)NN [PIMAGEDINE]	–	86	–	74.9	52.5	–
COc1ccc2c(c1O)[C@@]13CCN(C)[C@@H](C2)[C@H]1C[C@@H](OC)[C@H](NS(C)(=O)=O)C3	> 100	-3.5	–	-3.7	-2.3	–
COC1=C[C@@H]2[C@@H]3Cc4ccc(OC)c(O)c4[C@]2(CCN3C)CC1=O [SINOMENINE]	> 100	12.8	–	0.1	-3	inhibition [8]: Active
COc1cc(-c2cc(OC)c(O)c3c2C[C@H]2[C@H]4CCCC[C@@]34CCN2C)c2c(c1O)[C@]13CCCC[C@@H]1[C@H](C2)N(C)CC3 (stereo in doubt; 2a) [listing 1 of 2 here]	9.5	–	–	–	–	inhibition (INH) [9]: 41.6%; inhibition (INH) [10]: 17%; inhibition (INH) [7]: 2.7%; Activity [11]: Non-toxic
COC1=C[C@@H]2[C@@H]3Cc4c(-c5cc(OC)c(O)c6c5C[C@H]5[C@H]7C=C(OC)C(=O)C[C@@]67CCN5C)cc(OC)c(O)c4[C@]2(CCN3C)CC1=O (stereo in doubt; 1b)	–	–	-1.3	–	–	inhibition (INH) [2]: -2.1%; inhibition (INH) [3]: 6.6%
COc1cc(-c2cc(OC)c(O)c3c2C[C@H]2[C@H]4CCCC[C@@]34CCN2C)c2c(c1O)[C@]13CCCC[C@@H]1[C@H](C2)N(C)CC3 (stereo in doubt; 2b) [listing 1 of 2 here]	–	–	–	–	–	inhibition [6]: Dose-dependent effect
COc1cc(-c2cc(OC)c(O)c3c2C[C@H]2[C@H]4CCCC[C@@]34CCN2C)c2c(c1O)[C@]13CCCC[C@@H]1[C@H](C2)N(C)CC3 (stereo in doubt; 2b) [listing 2 of 2 here]	–	–	–	–	–	IC50 ([1]; raw264.7): 14.2 µM; inhibition at 6.25 µM ([9]; Mus musculus, RAW264.7, 24 h): 35.2%; inhibition at 3.125 µM ([10]; Mus musculus, RAW264.7, 24 h): 16.9%; inhibition (INH) [7]: -4.4%
COc1cc(-c2cc(OC)c(O)c3c2C[C@H]2[C@H]4CCCC[C@@]34CCN2C)c2c(c1O)[C@]13CCCC[C@@H]1[C@H](C2)N(C)CC3 (stereo in doubt; 2a) [listing 2 of 2 here]	–	–	–	–	–	inhibition [6]: Dose-dependent effect
COc1cc(-c2cc(OC)c(O)c3c2C[C@H]2[C@H]4C[C@@H](OC)[C@H](NS(=O)(=O)c5ccc(C)cc5)C[C@@]34CCN2C)c2c(c1O)[C@@]13CCN(C)[C@@H](C2)[C@H]1C[C@@H](OC)[C@H](NS(=O)(=O)c1ccc(C)cc1)C3 (stereo in doubt; 4a)	43.5	–	4.9	–	–	inhibition (INH) [5]: 2.6%
COc1ccc2c(c1O)[C@@]13CCN(C)[C@@H](C2)[C@H]1Cc1nc2ccccc2nc1C3	57.9	–	–	–	11.4	inhibition at 12.5 µM ([5]; Mus musculus, RAW264.7, 24 h): 1.3%
COC1=C[C@@H]2[C@@H]3Cc4c(-c5cc(OC)c(O)c6c5C[C@H]5[C@H]7C=C(OC)C(=O)C[C@@]67CCN5C)cc(OC)c(O)c4[C@]2(CCN3C)CC1=O (stereo in doubt; 1a) [listing 2 of 2 here]	–	–	–	–	–	inhibition [6]: Dose-dependent effect
COC1=C[C@@H]2[C@@H]3Cc4c(-c5cc(OC)c(O)c6c5C[C@@H]5NCC[C@]67CC(=O)C(OC)=C[C@H]57)cc(OC)c(O)c4[C@]2(CCN3)CC1=O (stereo in doubt; 3b)	–	–	-11.6	–	–	inhibition (INH) [2]: -7.1%; inhibition (INH) [3]: -11%
COc1ccc2c(c1O)[C@@]13CCN(C)[C@@H](C2)[C@H]1C[C@@H](OC)[C@H](NS(=O)(=O)c1ccc(C)cc1)C3	> 100	39.8	–	30	10.9	inhibition [6]: Dose-dependent effect
COC1=C[C@@H]2[C@@H]3Cc4c(-c5cc(OC)c(O)c6c5C[C@@H]5NCC[C@]67CC(=O)C(OC)=C[C@H]57)cc(OC)c(O)c4[C@]2(CCN3)CC1=O (stereo in doubt; 3a)	> 100	–	-9.3	–	–	inhibition (INH) [2]: 16%; inhibition (INH) [3]: -12.6%
